Laboratory results taken from patent US7863315B2, “2-indolinone derivatives as selective histone deacetylase inhibitors” (Shenzhen Chipscreen Biosciences, Ltd., priority 2008, dated 2011).

Columns and labels:
[1] = test system: HDAC4/5 (MEF2 reporter gene); experiment: HDAC subtype reporter gene assay, MEF-binding element (MEF2) luciferase in HeLa cells; format: cell-based; conditions: Homo sapiens, M-HeLa, read-out: % of SAHA Response for HDAC4/5 at 10 μM (MEF2 reporter gene), 24 hours
Procedure: (§1) Measurement of inhibition of HDAC subtypes activity in cells by reporter gene assay: HDAC subtype selectivity inhibition assay of tested compounds was carried out by several reporter gene assays experiments. Briefly, HeLa cells were seeded in 96-well plates the day before transfection to give a confluence of 50-80%. Cells were transfected with one of reporter gene plasmids containing a promoter sequences or response elements upstream of a luciferase gene construct using FuGene6 transfection reagent according to the manufacturer's instructions (Roche). The promoters or response elements including p21-promoter, gdf11-promoter, MEF-binding element (MEF2), Nur77-promoter were fused upstream to the luciferase gene reporter construct. For normalizing the transfection efficiency, a GFP expression plasmid was cotransfected. Cells were allowed to express protein for 24 hours followed by addition of individual compounds or the vehicle (DMSO). 24 hours later, the cells were harvested and the luciferase assays were performed using the luciferase assay kit according to the manufacturer's instructions (Promega). To normalize the data from the luciferase assays, GFP activity from transfected cells was measured in a microtiter-plate reading fluorimeter capable of excitation at a wavelength at 485 nm and detection of emitted light at 527 nm.

[2] = test system: total HDAC enzyme (HeLa extract); experiment: In vitro inhibition of total HDAC enzyme activity (HDAC Fluorimetric Assay/Drug Discovery Kit, BIOMOL); format: biochemical, human
Procedure: Measurement of in vitro inhibition of total HDAC enzyme activity:
The in vitro inhibition of total HDAC enzyme was determined by HDAC Fluorimetric Assay/Drug Discovery Kit (BIOMOL) according to manufacture's instruction. • 1. Add Assay buffer, diluted trichostatin A or test inhibitor to appropriate wells of the microtiter plate. Following table lists examples of various assay types and the additions required for each test.
• 2. Add diluted HeLa extract or other HDAC sample to all wells except those that are to be “No Enzyme Controls” (Blank). • 3. Allow diluted Fluor de LyS™ Substrate and the samples in the microtiter plate to equilibrate to assay temperature (25° C.). • 4. Initiate HDAC reactions by adding diluted substrate (25 μl) to each well and mixing thoroughly. • 5. Allow HDAC reactions to proceed for desired length of time and then stop them by addition of Fluor de Lys™ Developer (50 μl). Incubate plate at room temperature (25° C.) for 10-15 min. • 6. Read samples in a microtiter-plate reading fluorimeter capable of excitation at a wavelength in the range 350-380 nm and detection of emitted light in the range 440-460 nm.

[3] = test system: A549 human lung cancer cell line; experiment: Anti-cell proliferation (MTS), A549; format: cell-based; conditions: 72 hours
Procedure: (§2) Measurement of in vivo cell proliferation:
(§3) Tumor cells were trypsinized and plated into 96-well plates at 3,000 per well and incubated in complete medium with 10% FBS for 24 hours. Compounds were added over a final concentration range of 100 μmol/L to 100 nmol/L in 0.1% DMSO and incubated for 72 hours in complete medium. The effects on proliferation were determined by addition of MTS reagent (Promega) according to the instruction, incubation for 2 hours at 37° C. in CO2 incubator, and record the absorbance at 490 nm using an ELISA plate reader.

[4] = test system: HL60 human leukemia cell line; experiment: Anti-cell proliferation (MTS), HL60; format: cell-based; conditions: HL-60, 72 hours
Procedure: as §2, §3

lysine acetylation = experiment: ELISA assay of acetylation of lysine in HeLa cells; format: cell-based; conditions: Homo sapiens, M-HeLa, 24 hours
From the text: Measurement of acetylation activity in cells on substrates:
ELISA Assay of Acetylation of Lysine
This assay is used to measure in vivo inhibition of HDAC6 in a cytoblot assay.
Materials and Reagent: • 1. 24-well tissue culture • 2. DMEM Medium containing 10% FBS • 3. 96-well white plate • 4. HeLa cell line • 5. M-PER Mammalian Protein Extraction Reagent (Pierce) • 6. Bradford assay reagent • 7. Acetylated-lysine polyclonal Antibody (Cell Signaling) • 8. HRP-labeled anti-rabbit IgG (Upstate) • 9. Coating Buffer: 15 mM Na2CO3, 35 mM NaHCO3 (pH 9.6) • 10. 10×PBS: 0.58M Na2HPO4, 0.17M NaH2PO4, 0.68M NaCl (pH 7.4) • 11. Wash Buffer:1×PBS containing 0.05% Tween-20 (PBST) • 12. Blocking Buffer:10 mg/ml bocine serum albumin (BSA) in PBS • 13. Antibody Dilution Buffer: 5 mg/ml BSA in PBST • 14. Enhanced chemiluminescence (ECL) (Amersham)
Procedure for performing the assay in 96-well plate: • 1. HeLa cells were seeded at a density of 60000 cells/500 μl/well in 24-well plate and incubated at 37° C. for 24 hours. • 2. Compounds were added and incubated for 24 hours at 37° C. • 3. Culture medium was removed, then washes the cells twice with ice-cold PBS. • 4. Add 100 μl/well of Protein Extraction Reagent and gently shake the mixture for 5 minutes. • 5. Collect the lysate to a 96-well plate respectively. Determine the concentration of protein by Bradford assay. • 6. Coat the wells of a 96-well white plate with 100 μl/well of 2.5 μg whole cell protein in Coating Buffer by incubating overnight at 4° C. • 7. Discard the uncoated proteins and wash the coated wells three times with 200 μl/well of PBST. • 8. Block coated wells by incubating the plate with 200 μl/well of Blocking Buffer for 1 hour at 37° C. • 9. Wells were aspirated and washed three times with 200 μl/well of PBST. • 10. After aspirating, 50 μl/well of Antibody Dilution Buffer containing acetylated-lysine polyclonal antibody (1:1000) were added to each well and incubated for 2 hour at 37° C. • 11. Wells were aspirated and washed three times with 200 μl/well of PBST. • 12. 50 μl/well of Antibody Dilution Buffer containing HRP-labeled anti-rabbit IgG (1:2000) were added to each well and incubated for 2 hour at 37° C. • 13. Wells were aspirated and washed three times with 200 μl/well of PBST. • 14. Wells were washed three times with 200 μl/well of purified water. • 15. Add 50 μl/well of ECL mixture, then read the plates on the plate reader.

[5] = test system: HeLa human cervical cancer cell line; experiment: Anti-cell proliferation (MTS), HeLa; format: cell-based; conditions: 72 hours
Procedure: as §2, §3

[6] = test system: HDAC3 (gdf11 reporter gene); experiment: HDAC subtype reporter gene assay, gdf11-promoter luciferase in HeLa cells; format: cell-based; conditions: Homo sapiens, M-HeLa, read-out: % of SAHA Response for HDAC3 at 10 μM (gdf11 reporter gene), 24 hours
Procedure: as §1

[7] = test system: Hut-78 human T lymphoma cell line; experiment: Anti-cell proliferation (MTS), Hut-78; format: cell-based; conditions: HuT78, 72 hours
Procedure: as §2, §3

Row | % of Inhibition on Total HDAC Enzyme at 30 μM [2] [%] | GI50 [3] [µM] | GI50 [4] [µM] | GI50 [5] [µM] | GI50 [7] [µM] | Structure (SMILES) | Emax at 10 µM [1] [%] | fold induction at 10 µM (lysine acetylation) | Emax at 10 µM [6] [%]
1 | 98 | 35.5 | 9.33 | 25.7 | 14.1 | Cc1[nH]c(/C=N/N=C2\C(=O)Nc3ccc(F)cc32)c(C)c1C(=O)NCCCCCCCC(=O)NO [Example 26, 8-(5-(((5-fluoro-2-oxoindolin-3-ylidene)hydrazono)methyl)-2,4-dimethyl-1H-pyrrole-3-carboxamido)-N-hydroxyoctanamide] | 20 | 2.42 | 38
2 | 5 | > 100 | 5.89 | > 100 | 6.92 | Cc1[nH]c(/C=N/N=C2\C(=O)Nc3ccc(F)cc32)c(C)c1C(=O)NCCCCCCCC(=O)Nc1ccc(F)cc1N [Example 27, 8-(5-(((5-fluoro-2-oxoindolin-3-ylidene)hydrazono)methyl)-2,4-dimethyl-1H-pyrrole-3-carboxamido)-N-(2-amino-4-fluorophenyl)octanamide] | 37 | 2.13 | 6
3 | 18 | 36.3 | 4.37 | 28.2 | 4.27 | Cc1[nH]c(/C=N/N=C2\C(=O)Nc3ccc(F)cc32)c(C)c1C(=O)NCCCCCCCC(=O)Nc1ccccc1N [Example 28, 8-(5-(((5-fluoro-2-oxoindolin-3-ylidene)hydrazono)methyl)-2,4-dimethyl-1H-pyrrole-3-carboxamido)-N-(2-aminophenyl)octanamide] | 32 | 1.7 | 26
4 | −16 | 30.2 | 14.8 | 55 | 10.7 | Nc1cc(F)ccc1NC(=O)CCCCCCCNC(=O)c1ccc(/C=N/N=C2\C(=O)Nc3ccc(F)cc32)cc1 [Example 36, 8-(4-(((5-fluoro-2-oxoindolin-3-ylidene)hydrazono)methyl)benzamido)-N-(2-amino-4-fluorophenyl)octanamide] | 50 | 1.35 | 6
5 | 31 | 28.8 | 4.17 | 22.9 | 4.17 | Nc1ccccc1NC(=O)CCCCCNC(=O)c1ccc(/C=C2\C(=O)Nc3ccc(F)cc32)cc1 [Example 39, 6-(4-((5-fluoro-2-oxoindolin-3-ylidene)methyl)benzamido)-N-(2-aminophenyl)hexanamide] | 45 | 1.73 | 41
6 | 22 | 36.3 | 5.75 | 33.9 | 4.17 | Nc1cc(F)ccc1NC(=O)CCCCCNC(=O)c1ccc(/C=C2\C(=O)Nc3ccc(F)cc32)cc1 [Example 40, 6-(4-((5-fluoro-2-oxoindolin-3-ylidene)methyl)benzamido)-N-(2-amino-4-fluorophenyl)hexanamide] | 56 | 1.5 | 13
7 | 30 | 19.5 | 2.95 | 11 | 4.37 | Nc1ccccc1NC(=O)CCCCCNC(=O)c1cccc(/C=C2\C(=O)Nc3ccc(F)cc32)c1 [Example 44, 6-(3-((5-fluoro-2-oxoindolin-3-ylidene)methyl)benzamido)-N-(2-aminophenyl)hexanamide] | 85 | 1.42 | 48
8 | 30 |  |  |  |  | Nc1cc(F)ccc1NC(=O)CCCCCNC(=O)c1cccc(/C=C2\C(=O)Nc3ccc(F)cc32)c1 [Example 45, 6-(3-((5-fluoro-2-oxoindolin-3-ylidene)methyl)benzamido)-N-(2-amino-4-fluorophenyl)hexanamide] | 44 | 1.17 | 12
9 | 95 |  |  |  |  | O=C(CCCCCNC(=O)c1cccc(/C=C2\C(=O)Nc3ccc(F)cc32)c1)NO [Example 46, 6-(3-((5-fluoro-2-oxoindolin-3-ylidene)methyl)benzamido)-N-hydroxyhexanamide] | 27 | 1.16 | 10
10 | 22 |  |  |  |  | Nc1ccccc1NC(=O)CCCCNC(=O)c1cccc(/C=C2\C(=O)Nc3ccc(F)cc32)c1 [Example 49, 5-(3-((5-fluoro-2-oxoindolin-3-ylidene)methyl)benzamido)-N-(2-aminophenyl)pentanamide] | 32 | 1.02 | 11
11 | 86 |  |  |  |  | O=C(CCCCNC(=O)c1cccc(/C=C2\C(=O)Nc3ccc(F)cc32)c1)NO [Example 51, 5-(3-((5-fluoro-2-oxoindolin-3-ylidene)methyl)benzamido)-N-hydroxypentanamide] | 33 | 1.31 | 12
12 | 14 |  |  |  |  | Nc1cc(F)ccc1NC(=O)CCCCCCCNC(=O)c1cccc(/C=C2\C(=O)Nc3ccc(F)cc32)c1 [Example 55, 8-(3-((5-fluoro-2-oxoindolin-3-ylidene)methyl)benzamido)-N-(2-amino-4-fluorophenyl)octanamide] | 36 | 1.12 | 6
